In patent US8617563B2, “Antichlamydial agents” (Duke University, priority 2011, dated 2013):
“Also recorded” adds a separate entry of the source. Where no end group is shown, it is not given here.

Columns and labels:
[1] = target: CPAF (Chlamydia trachomatis serovar D, UniProt O84866); format: cell-based, C. trachomatis; set-up: endogenous in cells; host or cells: HeLa cells infected with C. trachomatis LGV-L2 434/Bu (the bacteria make the protein and secrete it into the host cytosol); conditions: L2-infected HeLa cells, peptide at 12 hpi, harvested 30 hpi; 2-10 μM for vimentin
Description: Uninfected and HeLa cells pre-infected with L2 for 30 hrs were treated with inhibitory peptides and infected with EBs for 10 min Tarp translocation was indirectly visualized with an anti-phosphotyrosine antibody (A) and quantified by counting 50 separate cells (B). The stability of newly translocated Tarp was assessed by infecting cells as in (A) but with S^35-labeled EBs, followed by sequential immunoprecipitation of Tarp and MOMP and Phosphoimager analysis of precipitated material (C (I-IV)). […] IC50 values were determined by assessing CPAF cleavage of an Abz-tagged CPAF substrate (SEQ ID NO:9) by HPLC. Assays were performed the presence of increasing amount of inhibitors. […] Extracellular bacteria were determined. […] The number of internalized EBs was quantified per cell (H). […]
Rabbits were immunized with recombinant GST fusions to Ct005, IncC, IncD, Tarp, and hexa-histidine-tagged CPAF produced in E. coli BL-21 (available from Stratagene) and purified by affinity chromatography. […] To assess CPAF cleavage of membrane proteins and EB proteins, purified membranes and soluble EB protein lysate were incubated with 6× his-CPAF at 37° C., and resulting product analyzed by immunoblot. […]
To establish if CPAF was inhibited by SEQ ID NO:7 during infection, vimentin cleavage was assessed in C. trachomatis LGV-L2 434-infected HeLa cells after treatment with a range of concentrations (2-10 μM).

[2] = test system: C. trachomatis LGV-L2; assay: Generation of infectious particles (IFU) and inclusion growth in infected HeLa cells; format: cell-based
Description: FIG. 9 depicts (A) CPAF inhibitory peptides block the generation of Chlamydia infectious particles. L2-infected HeLa cells were treated at 12 hpi with increasing concentration of peptides. EBs were harvested at 30 hpi and inclusion-forming units (IFU) were quantified on fresh cell monolayers. (B-D) CPAF activity is required to maintain inclusion integrity. The integrity of the inclusion was determined by assessing the immunolocalization of the inclusion membrane marker IncA (red) and Chlamydia (green) (B) and by transmission electron microscopy (C). […] (D) The percentage of vimentin-positive inclusions was determined by IF in infected cells treated with SEQ ID NO:7 and SEQ ID NO:11 (12 hpi) peptides at 24 hpi. (E) Activation of inflammatory cytokines upon inhibition of CPAF activity. Levels of IL-8 supernatants from Chlamydia infected cells treated with peptides as in (B-D) were determined at 24 hpi by ELISA.
Cells were infected with an MOI of 1 and treated with CPAF inhibitor (SEQ ID NO:7) or control (SEQ ID NO:11) peptides at 12 hpi, fixed at 24 hpi and analyzed by IF with anti-L2 polyclonal antisera. Inclusion size was determined by measuring the inclusion diameter in μm by confocal microscopy of 50 infected cells. The number of cells with fragmented inclusions was determined by counting the number of infected cells out of 50 with more than one inclusion. […]

CPAF, sequence (O84866 276-601): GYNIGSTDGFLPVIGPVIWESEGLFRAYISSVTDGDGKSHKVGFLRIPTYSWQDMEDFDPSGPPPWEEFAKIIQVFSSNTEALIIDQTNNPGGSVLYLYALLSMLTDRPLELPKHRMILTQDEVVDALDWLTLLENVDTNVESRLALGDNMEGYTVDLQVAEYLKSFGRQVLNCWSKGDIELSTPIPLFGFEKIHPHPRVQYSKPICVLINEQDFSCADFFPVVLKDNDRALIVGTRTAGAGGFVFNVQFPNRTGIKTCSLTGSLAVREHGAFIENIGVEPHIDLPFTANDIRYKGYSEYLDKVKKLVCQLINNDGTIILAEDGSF
CPAF, sequence (O84866 24-234): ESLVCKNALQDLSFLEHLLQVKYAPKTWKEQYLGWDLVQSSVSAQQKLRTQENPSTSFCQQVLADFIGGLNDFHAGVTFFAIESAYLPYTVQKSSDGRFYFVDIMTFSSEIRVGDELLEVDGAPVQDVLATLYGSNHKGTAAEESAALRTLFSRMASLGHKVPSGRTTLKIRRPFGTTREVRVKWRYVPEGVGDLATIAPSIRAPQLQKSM

SLFYSPMVPHFWAELRNHYATSGLKRRRRRRRRR-NH2 [SEQ ID NO:7]
Inhibition of CPAF-mediated cleavage of vimentin and Puma in infected cells [1]: markedly inhibited; also recorded: loss of vimentin processing; also recorded: Vimentin and Puma cleavage was inhibited | Yields of EBs (IFU) ([2]; L2-infected HeLa, peptide at 12 hpi, EBs harvested 30 hpi): significantly lowered yields of EBs | Inclusion growth ([2]; MOI 1, peptide at 12 hpi, fixed 24 hpi): stunted inclusion growth
